For experiment [1], the target named is T1, Human CB2R (Cannabinoid receptor 2) (Homo sapiens, UniProt P34972).
T1 construct: host or cells: HEK-293
Nature of the experiment: CB-2 in vitro cAMP (HTRF) functional assay. Type of experiment: cell-based. Conditions: mean where tested more than once. From the text:
(§1) CB1 and CB2 receptors are Gi-coupled GPCR. Activation of CB1 and CB2 receptors results in a decrease in cAMP production. An inverse agonist of the CB1 or CB2 receptor results in the opposite effect, an increase of cAMP production. The principle of this assay is based on HTRF® technology (Homogeneous Time-Resolved Fluorescence). The method is a competitive immunoassay between native cAMP produced by cells and the cAMP labeled with the fluorophore d2. The tracer binding is quantified by a Mab anti-cAMP labeled with Eu3+ TBP-NHS Cryptate (supplied as part of the assay kit). The specific signal (i.e. energy transfer) is inversely proportional to the concentration of cAMP in the standard or sample.
(§2) Human CB1R (Cannabinoid receptor 1) was stably transfected in HEK-293 cells (DiscoveRx, cat: 93-0200C1). Human CB2R (Cannabinoid receptor 2) was stably transfected in HEK-293 cells (DiscoveRx, cat: 93-0201C1). Cell cultures were maintained in media: DMEM (Invitrogen Cat#12430-054) supplemented with 10% HI FBS (Invitrogen Cat#16140-071), 1% L-glutamine (Invitrogen Cat#25030-081), 0.2 mg/ml Hygromycin B (Invitrogen Cat#10687-010), 600 μg/mL G418 (Invitrogen Cat#10131-035), and 1× Penn/Strep (Invitrogen 15140-122). After cell expansion, aliquots were cryo-stored in media containing 5% DMSO (Pierce Cat#20684).
(§3) One day prior to experiments media was warmed to 37° C. and the cryo-stored cells were thawed in a 37° C. water bath. The cells were then added to media (10× volume) and the mixture was centrifuged at 1000 RPM for 5 min. The supernate was removed and the cells were re-suspended in media. A sample of the cell suspension was evaluated on a Cedex XS automated cell counter (Innovatis Systems) to determine viable cells/ml. Additional media was added to the cells to achieve a final cell density of 4E5 cells/mL. The cells were then plated into 384 well PDL white solid bottom plates (Greiner, Cat#781945) at 20 μL per well using a Multidrop (Thermo Scientific). Cells were removed from Row P (location of cAMP standards). Two columns of cells were plated into a clear bottom 384 well PDL coated plate (Greiner, Cat#781944) to view confluence the day of the assay. The cell plates were lidded and stored for 15 minutes in a hood, then transferred to an incubator (37° C., 5% CO2, 95% humidity) overnight.
(§4) DMSO was added to all wells of 384 well V bottom polystyrene plate (Greiner, Cat#781280) except to columns 1 and 13, rows O and P and wells M13-M23 and N13-N23. Test compounds (60 μL, 10 mM) were added to Column 1 and 13 (A1 through N1 and A13 through L13). Test compounds were serially diluted 1/3 by transferring and mixing 20 μl sample with 40 μL DMSO.
(§5) DMSO (40 μL) was added to wells of 384 well V bottom polystyrene plate: O2 through O11, M14 through M23, N14 through N23, and O14 through O23. AM630 (also known as [6-iodo-2-methyl-1-[2-(4-morpholinyl)ethyl]-1H-indol-3-yl](4-methoxyphenyl)-methanone, Cayman Chemical, Cat#10006974) (60 μL, 10 mM) was added to O1; and 1-(2,4-dichlorophenyl)-7-[(4-fluorophenyl)methylene]-4,5,6,7-tetrahydro-N-1-piperidinyl-1H-indazole-3-carboxamide (60 μL, 10 mM) was added to N13. The control was serially diluted 1/3 by transferring and mixing 20 μl sample with 40 μL DMSO. This process resulted 11 doses per control, 10 mM to […].
(§6) Cells plated the day prior to the assay in clear bottom plates were viewed on an inverse microscope to ensure confluency in the range of 60-75%. […]

Experiment [2] has as its target T2, Human CB1R (Cannabinoid receptor 1) (Homo sapiens, UniProt P21554).
T2 construct: host or cells: HEK-293
Nature of the experiment: CB-1 in vitro cAMP (HTRF) functional assay. The note with it: mean where tested more than once. Format: cell-based.
Source text: as §1, §2, §3, §4, §5, §6

In the next experiment the target is hCB1-CHO-K1 membranes (Homo sapiens, UniProt P21554). Description: CB-1 membrane binding assay ([3H] CP 55,940 displacement).
In another experiment the target is T3, hCB2-HEK293 membranes (Homo sapiens, UniProt P34972).
T3 construct: expressed in transfected cells; host or cells: HEK293
Nature of the experiment: CB-2 membrane binding assay ([3H] CP 55,940 displacement). The note with it: mean where tested more than once.

hCB1-CHO-K1 membranes, sequence (P21554 whole entry): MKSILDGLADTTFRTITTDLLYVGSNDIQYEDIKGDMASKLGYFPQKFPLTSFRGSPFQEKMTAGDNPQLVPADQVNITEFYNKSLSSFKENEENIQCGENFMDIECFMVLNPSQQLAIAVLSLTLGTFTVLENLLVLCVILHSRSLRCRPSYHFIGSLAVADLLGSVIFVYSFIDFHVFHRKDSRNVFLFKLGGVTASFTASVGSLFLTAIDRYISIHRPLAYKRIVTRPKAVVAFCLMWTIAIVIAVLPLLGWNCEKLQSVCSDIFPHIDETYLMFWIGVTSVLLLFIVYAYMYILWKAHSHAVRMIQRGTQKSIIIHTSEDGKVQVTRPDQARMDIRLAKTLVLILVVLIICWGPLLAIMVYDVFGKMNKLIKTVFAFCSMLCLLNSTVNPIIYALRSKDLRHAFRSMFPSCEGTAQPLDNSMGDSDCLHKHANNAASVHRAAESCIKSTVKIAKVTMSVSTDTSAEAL
T2 sequence (P21554 whole entry): as above
T1 sequence (P34972 whole entry): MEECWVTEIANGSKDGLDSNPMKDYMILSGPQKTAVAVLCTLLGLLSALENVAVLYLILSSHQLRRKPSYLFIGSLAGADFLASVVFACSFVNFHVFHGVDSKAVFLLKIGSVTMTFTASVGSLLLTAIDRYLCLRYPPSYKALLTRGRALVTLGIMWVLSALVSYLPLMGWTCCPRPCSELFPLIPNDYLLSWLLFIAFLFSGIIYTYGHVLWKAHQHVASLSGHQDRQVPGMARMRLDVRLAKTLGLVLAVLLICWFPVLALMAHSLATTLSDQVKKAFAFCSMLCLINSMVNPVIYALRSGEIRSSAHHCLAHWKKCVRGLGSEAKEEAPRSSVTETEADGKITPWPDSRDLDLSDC
T3 sequence (P34972 whole entry): as above
Protocol for hCB1-CHO-K1 membranes: Into Greiner V bottom polypropylene plates, hCB1-CHO-K1 membranes (2 μg/well final concentration) in assay buffer (50 mM Tris-HCl pH 7.4, 5 mM MgCl2 and 0.5 mg/ml (0.05%) Ultra fatty acid free BSA) were dispensed. Membranes were purchased from Perkin Elmer. Test compounds were then added to each well and then [^3H] CP 55, 940 (0.4 nM final well concentration) in assay buffer (50 mM Tris-HCl pH 7.4, 5 mM MgCl2 and 0.5 mg/ml (0.05%) Ultra fatty acid free BSA) was added. Samples were mixed and incubated for 90 min at 30° C. in the Greiner V Bottom Polypropylene plate. After incubation, assay reagents were transferred to a blocked 384 well polypropylene filter plates. The binding reaction was stopped by filtration and washed seven times with ice cold rinse buffer. Filter plates were then dried overnight at room temperature. The next day, plate bottoms were sealed with plate tape and 15 μl MicroScint 20 was added to each well. Plates were incubated for 2 h and radioactivity was measured by Topcount.
Total Binding levels were achieved by combining membrane, DMSO, and [^3H]
Non-Specific Binding (NSB) levels were achieved by combining membrane, 10 μM final concentration WIN-55,212 (also known as (R)-(+)-[2,3-Dihydro-5-methyl-3[(4-morpholinyl)methyl]pyrrolo[1,2,3-de]-1,4-benzoxazinyl]-(1-naphthalenyl)methanone mesylate, Tocris Biosciences Cat#1038), and [^3H]
Non-specific binding (NSB=10 μM WIN-55,212+Membrane+[^3H] CP-55,940) was used as the negative control, while the Total Binding (TB=DMSO+Membrane+[^3H] CP-55,940) was used as the positive control.
IC50 data was calculated using raw CPM values. Curves were fitted individually from singlet 11 point dosing curves+1% DMSO Control. IC50 values were fit appropriately and calculated using the following equation:
Vmin, CPM at maximum inhibition; Vo, CPM at zero inhibition; IC50, inhibitor concentration at 50% inhibition; h, Hill coefficient.

Turning to `O=C(O)c1ccc(Nc2cc(=O)[nH]c3ccc(C(c4ccc(Cl)cc4)c4ccc(Cl)cc4)cc23)cc1` [Compound 86, 4-({6-[Bis(4-chlorophenyl)methyl]-2-oxo-1,2-dihydroquinolin-4-yl}amino)benzoic acid], the EC50 in experiment [1] and in experiment [2] was over 10000 nM in each case.

Molecule `OC(c1ccc(Cl)cc1)(c1ccc(Cl)cc1)c1ccc2nccc(/C=C/c3ccccc3)c2c1` [Compound 501, (E)-bis(4-chlorophenyl)(4-styrylquinolin-6-yl)methanol] came in with an IC50 at hCB1-CHO-K1 membranes of 52.1 nM.

As to `O=c1cc(/C=C/c2ccccc2)c2cc(C(c3ccc(Cl)cc3)c3nccs3)ccc2[nH]1` (centres unmarked) [Compound 25, (E)-6-((4-chlorophenyl)(thiazol-2-yl)methyl)-4-styrylquinolin-2(1H)-one], the IC50 on hCB2-HEK293 membranes was over 5000 nM; at hCB1-CHO-K1 membranes, 34.6 nM.

For the molecule `O=C(O)COc1cc(C(c2ccc(Cl)cc2)c2ccc(Cl)cc2)cc2c(NC3CCN(S(=O)(=O)C(F)(F)F)CC3)ccnc12` [Compound 545], in experiment [2], the EC50 was 4900 nM.

As for `O=C(c1ccc(Nc2cc(=O)[nH]c3ccc(C(c4ccc(Cl)cc4)c4ccc(Cl)cc4)cc23)cc1F)N1CCCC1` [Compound 138], the values for the EC50 in experiment [1] and in experiment [2] were 750 nM and 227 nM, respectively.

For the molecule `O=c1cc(/C=C/c2ccc(C(F)(F)F)cc2)c2cc(C(c3ccc(Cl)cc3)c3cccs3)ccc2[nH]1` (centres unmarked) [Compound 19, 6-[(4-Chlorophenyl)(thiophen-2-yl)methyl]-4-{(E)-2-[4-(trifluoromethyl)phenyl]ethenyl} quinolin-2(1H)-one], the figures for the half-inhibitory concentration (IC50) at hCB2-HEK293 membranes and at hCB1-CHO-K1 membranes were over 5000 nM and 15.1 nM, respectively.

On hCB1-CHO-K1 membranes, `OC(c1ccc(Cl)cc1)(c1ccc2nccc(/C=C/c3ccccc3)c2c1)c1cccs1` (centres unmarked) [Compound 506, (4-Chlorophenyl){4-[(E)-2-phenylethenyl]quinolin-6-yl}thiophen-2-ylmethanol] returned an IC50 of 101 nM.

Take `CCOC(=O)COc1cc(C(c2ccc(Cl)cc2)c2ccc(Cl)cc2)cc2c(NC3CCN(S(=O)(=O)C(F)(F)F)CC3)ccnc12` [Compound 544]: the half-maximal effective concentration (EC50) in experiment [1] is 3400 nM; in experiment [2], 126 nM.

`O=C(O)CCN1CCC(Nc2cc(=O)[nH]c3ccc(C(c4ccc(Cl)cc4)c4ccc(Cl)cc4)cc23)CC1` [Compound 115, 3-[4-({6-[Bis(4-chlorophenyl)methyl]-2-oxo-1,2-dihydroquinolin-4-yl}amino)piperidin-1-yl]propanoic acid]: the EC50 in experiment [1] and in experiment [2] was over 10000 nM each time.

The molecule `OC(c1ccc(Cl)cc1)(c1ccsc1)c1ccc2nccc(/C=C/c3ccccc3)c2c1` (centres unmarked) [Compound 507, (4-Chlorophenyl){4-[(E)-2-phenylethenyl]quinolin-6-yl}thiophen-3-ylmethanol] displayed an IC50 on hCB1-CHO-K1 membranes of 223 nM.

Regarding `COc1ccc(C(O)(c2ccc3nccc(/C=C/c4ccccc4)c3c2)c2nccs2)cc1` (centres unmarked) [Compound 504, (E)-(4-methoxyphenyl)(4-styrylquinolin-6-yl)(thiazol-2-yl)methanol], on hCB1-CHO-K1 membranes, the IC50 is 1870 nM.

The molecule `O=c1cc(CCc2cccc(Cl)c2)c2cc(C(c3ccc(Cl)cc3)c3nccs3)ccc2[nH]1` (centres unmarked) [Compound 11, 4-(3-chlorophenethyl)-6-((4-chlorophenyl)(thiazol-2-yl)methyl)quinolin-2(1H)-one] yielded a half-maximal inhibitory concentration (IC50) at hCB1-CHO-K1 membranes of 332 nM. This IC50 is about 5.6-fold lower than that of the molecule before.

`O=c1cc(CCc2cccc(Cl)c2)c2cc(C(O)(c3ccc(Cl)cc3)c3nccs3)ccc2[nH]1` (centres unmarked) [Compound 8, 4-(3-chlorophenethyl)-6-((4-chlorophenyl)(hydroxy)(thiazol-2-yl)methyl)quinolin-2(1H)-one] registered an IC50 at hCB1-CHO-K1 membranes of over 2500 nM.

As to `Clc1ccc(C(c2ccc3nccc(/C=C/c4ccccc4)c3c2)c2cccs2)cc1` (centres unmarked) [Compound 508, 6-[(4-Chlorophenyl)(thiophen-2-yl)methyl]-4-[(E)-2-phenylethenyl]quinoline], the IC50 at hCB1-CHO-K1 membranes turned out to be 97.3 nM.

As to `NC(=O)CCCOc1ccc(Nc2cc(=O)[nH]c3ccc(C(c4ccc(Cl)cc4)c4ccc(Cl)cc4)cc23)cc1` [Compound 123, 4-[4-({6-[Bis(4-chlorophenyl)methyl]-2-oxo-1,2-dihydroquinolin-4-yl}amino)phenoxy]butanamide], the concentration for a half-maximal effect (EC50) in experiment [1] is over 10000 nM.

In the case of `CCOC(=O)CS(=O)(=O)N1CCC(Nc2cc(=O)[nH]c3ccc(C(c4ccc(Cl)cc4)c4ccc(Cl)cc4)cc23)CC1` [Compound 102, ethyl 2-((4-((6-(bis(4-chlorophenyl)methyl)-2-oxo-1,2-dihydroquinolin-4-yl)amino)piperidin-1-yl)sulfonyl)acetate], the EC50 in experiment [1] was over 10000 nM.

For `NC(=O)Cn1c(=O)cc(NC2CCN(S(=O)(=O)C(F)(F)F)CC2)c2cc(C(c3ccc(Cl)cc3)c3ccc(Cl)cc3)ccc21` [Compound #90, 2-(6-(bis(4-chlorophenyl)methyl)-2-oxo-4-((1-((trifluoromethyl)sulfonyl)piperidin-4-yl)amino)quinolin-1 (2H)-yl)acetamide], the EC50 in experiment [1] was over 10000 nM.

Take `O=c1cc(NC2CCN(CC(F)(F)F)CC2)c2cc(C(c3ccc(Cl)cc3)c3ccc(Cl)cc3)ccc2[nH]1` [Compound #77, 6-(bis(4-chlorophenyl)methyl)-4-((1-(2,2,2-trifluoroethyl)piperidin-4-yl)amino)quinolin-2(1H)-one]: in experiment [1], the EC50 is over 10000 nM.

For `O=C(O)CCC(=O)N1CCC(Nc2cc(=O)[nH]c3ccc(C(c4ccc(Cl)cc4)c4ccc(Cl)cc4)cc23)CC1` [Compound 98, 4-(4-((6-(bis(4-chlorophenyl)methyl)-2-oxo-1,2-dihydroquinolin-4-yl)amino)piperidin-1-yl)-4-oxobutanoic acid], in experiment [1], the concentration giving a half-maximal response (EC50) was over 10000 nM.

In experiment [1], `O=c1cc(NC2CCCCC2)c2cc(C(c3ccc(Cl)cc3)c3ccc(Cl)cc3)ccc2[nH]1` [Compound #71, 6-(bis(4-chlorophenyl)methyl)-4-(cyclohexylamino)quinolin-2(1H)-one] showed an EC50 of over 10000 nM.

`Cn1c(=O)cc(CCc2cccc(Cl)c2)c2cc(C(c3ccc(Cl)cc3)c3nccs3)ccc21` (centres unmarked) [Compound 9, 4-(3-chlorophenethyl)-6-((4-chlorophenyl)(thiazol-2-yl)methyl)-1-methylquinolin-2(1H)-one] had an IC50 on hCB1-CHO-K1 membranes of over 2500 nM.

In experiment [1], `O=C(O)CN1CCC(Nc2cc(=O)[nH]c3ccc(C(c4ccc(Cl)cc4)c4ccc(Cl)cc4)cc23)CC1` [Compound 117, [4-({6-[Bis(4-chlorophenyl)methyl]-2-oxo-1,2-dihydroquinolin-4-yl}amino)piperidin-1-yl]acetic acid] registered an EC50 of over 10000 nM.

The molecule `Clc1ccc(C(c2ccc(Cl)cc2)c2ccc3nccc(/C=C/c4ccccc4)c3c2)cc1` [Compound 503, (E)-6-(bis(4-chlorophenyl)methyl)-4-styrylquinoline] gave an IC50 at hCB1-CHO-K1 membranes of 4.1 nM. This counts as single-digit nanomolar.

For `O=c1cc(Nc2ccc(C(F)(F)F)cc2)c2cc(C(c3ccc(Cl)cc3)c3ccc(Cl)cc3)cc(Br)c2[nH]1` [Compound 93], the EC50 in experiment [1] was over 10000 nM; in experiment [2] it was 15 nM.

`O=c1cc(NC2CCN(S(=O)(=O)N3CCCC3)CC2)c2cc(C(c3ccc(Cl)cc3)c3ccc(Cl)cc3)ccc2[nH]1` [Compound #81, 6-(bis(4-chlorophenyl)methyl)-4-((1-(pyrrolidin-1-ylsulfonyl)piperidin-4-yl)amino)quinolin-2(1H)-one]: the half-maximal effective concentration (EC50) in experiment [1] is over 10000 nM.

Source of the values: US9464055B2, “Quinoline derivatives useful as CB-1 inverse agonists” (JANSSEN PHARMACEUTICA NV, priority 2014, dated 2016).
